Results on 47 compounds are retold here after ChEMBL document CHEMBL1641516, “Preparation and evaluation of trisubstituted pyrimidines as phosphatidylinositol 3-kinase inhibitors. 3-Hydroxyphenol analogues and bioisosteric replacements” (Bioorg Med Chem, 2011).

For series [1], the target named is Phosphatidylinositol 4,5-bisphosphate 3-kinase catalytic subunit alpha isoform (Homo sapiens, UniProt P42336).
Description: Inhibition of human recombinant PI3K p110alpha after 1 hr by radiometric scintillation proximity assay
Series [2] addresses Phosphatidylinositol 4,5-bisphosphate 3-kinase catalytic subunit beta isoform (Homo sapiens, UniProt P42338). In words: Inhibition of human recombinant PI3K p110beta after 1 hr by radiometric scintillation proximity assay. Background: SPA uses beads or plates that emit light when radiolabelled molecules are held near them.
Series [3] is described as follows: Metabolic stability in mouse liver microsomes assessed as compound metabolized at […] after 30 mins by MS analysis. In kind it is ADME, Microsome. The settings on record: read-out: Activity.
Series [4] can be described thus: Metabolic stability in mouse liver microsomes assessed as compound metabolized at […] after 15 mins by MS analysis. In kind it is ADME, Microsome. The note with it: read-out: Activity. In general terms: Microsomes from liver hold many membrane-bound enzymes, among them those of drug oxidation.
For series [5], the system named is IGROV-1. Put plainly: Cell cycle arrest in human IGROV1 cells assessed as accumulation at G1 phase at 1 fold IC50 after 24 hrs by flow cytometry. In kind it is functional.
In series [6] the test system is IGROV-1. In words: Cell cycle arrest in human IGROV1 cells assessed as accumulation at G1 phase at 5 fold IC50 after 24 hrs by flow cytometry. In kind it is functional. (In flow cytometry, cells or beads pass a laser one at a time.)
For series [7], the system named is IGROV-1. Put plainly: Cell cycle arrest in human IGROV1 cells assessed as accumulation at S phase at 1 fold IC50 after 24 hrs by flow cytometry. In kind it is functional.
Series [8] deals with IGROV-1. In words: Cell cycle arrest in human IGROV1 cells assessed as accumulation at S phase at 5 fold IC50 after 24 hrs by flow cytometry. In kind it is functional.
Series [9] has as its system IGROV-1. Put plainly: Cell cycle arrest in human IGROV1 cells assessed as accumulation at G2/M phase at 1 fold IC50 after 24 hrs by flow cytometry. In kind it is functional.
For series [10], the system named is IGROV-1. In words: Cell cycle arrest in human IGROV1 cells assessed as accumulation at G2/M phase at 5 fold IC50 after 24 hrs by flow cytometry. In kind it is functional.
For series [11], the target named is Phosphatidylinositol 4,5-bisphosphate 3-kinase catalytic subunit gamma isoform (Homo sapiens, UniProt P48736).
Phosphatidylinositol 4,5-bisphosphate 3-kinase catalytic subunit gamma isoform, sequence (P48736 whole entry, canonical isoform): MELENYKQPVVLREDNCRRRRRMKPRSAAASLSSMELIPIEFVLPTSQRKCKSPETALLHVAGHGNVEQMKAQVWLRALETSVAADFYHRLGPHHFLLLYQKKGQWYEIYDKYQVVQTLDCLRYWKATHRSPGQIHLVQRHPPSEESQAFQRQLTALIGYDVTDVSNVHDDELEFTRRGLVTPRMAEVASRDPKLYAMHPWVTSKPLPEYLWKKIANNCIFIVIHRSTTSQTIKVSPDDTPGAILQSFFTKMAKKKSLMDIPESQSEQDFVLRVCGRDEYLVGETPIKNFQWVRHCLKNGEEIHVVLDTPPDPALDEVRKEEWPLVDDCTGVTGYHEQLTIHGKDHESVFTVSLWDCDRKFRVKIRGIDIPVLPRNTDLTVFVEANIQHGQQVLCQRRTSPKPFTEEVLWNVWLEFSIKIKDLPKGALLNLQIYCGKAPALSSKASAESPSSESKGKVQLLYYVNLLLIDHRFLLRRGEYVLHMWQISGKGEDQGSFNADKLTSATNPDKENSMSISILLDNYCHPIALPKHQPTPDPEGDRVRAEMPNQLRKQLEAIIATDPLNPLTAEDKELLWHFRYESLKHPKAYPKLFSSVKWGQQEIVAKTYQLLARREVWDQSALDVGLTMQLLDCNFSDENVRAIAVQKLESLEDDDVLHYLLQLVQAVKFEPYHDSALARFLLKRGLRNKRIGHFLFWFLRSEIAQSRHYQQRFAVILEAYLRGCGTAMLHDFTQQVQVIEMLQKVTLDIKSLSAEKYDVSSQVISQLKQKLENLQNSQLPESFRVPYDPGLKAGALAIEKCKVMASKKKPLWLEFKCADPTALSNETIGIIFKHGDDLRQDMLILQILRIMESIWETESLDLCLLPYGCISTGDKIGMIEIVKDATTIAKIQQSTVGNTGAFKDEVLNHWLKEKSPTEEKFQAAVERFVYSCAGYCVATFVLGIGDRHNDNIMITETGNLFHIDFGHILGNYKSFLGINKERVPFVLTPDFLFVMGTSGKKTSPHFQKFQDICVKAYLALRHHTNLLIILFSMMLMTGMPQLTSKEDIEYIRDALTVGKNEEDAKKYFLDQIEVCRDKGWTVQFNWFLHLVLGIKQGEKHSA
Description: Inhibition of human recombinant PI3K p110gamma after 1 hr by radiometric scintillation proximity assay
For series [12], the system named is IGROV-1. In words: cells. The settings on record: Homo sapiens, IGROV-1, 96 h.
Description: Cytotoxicity against human IGROV1 cells after 96 hrs by SRB assay

pIC50: −log10 of the molar value. A value given as a limit tells only on which side of the number the result lay.

Phosphatidylinositol 4,5-bisphosphate 3-kinase catalytic subunit beta isoform, sequence (P42338 whole entry, canonical isoform): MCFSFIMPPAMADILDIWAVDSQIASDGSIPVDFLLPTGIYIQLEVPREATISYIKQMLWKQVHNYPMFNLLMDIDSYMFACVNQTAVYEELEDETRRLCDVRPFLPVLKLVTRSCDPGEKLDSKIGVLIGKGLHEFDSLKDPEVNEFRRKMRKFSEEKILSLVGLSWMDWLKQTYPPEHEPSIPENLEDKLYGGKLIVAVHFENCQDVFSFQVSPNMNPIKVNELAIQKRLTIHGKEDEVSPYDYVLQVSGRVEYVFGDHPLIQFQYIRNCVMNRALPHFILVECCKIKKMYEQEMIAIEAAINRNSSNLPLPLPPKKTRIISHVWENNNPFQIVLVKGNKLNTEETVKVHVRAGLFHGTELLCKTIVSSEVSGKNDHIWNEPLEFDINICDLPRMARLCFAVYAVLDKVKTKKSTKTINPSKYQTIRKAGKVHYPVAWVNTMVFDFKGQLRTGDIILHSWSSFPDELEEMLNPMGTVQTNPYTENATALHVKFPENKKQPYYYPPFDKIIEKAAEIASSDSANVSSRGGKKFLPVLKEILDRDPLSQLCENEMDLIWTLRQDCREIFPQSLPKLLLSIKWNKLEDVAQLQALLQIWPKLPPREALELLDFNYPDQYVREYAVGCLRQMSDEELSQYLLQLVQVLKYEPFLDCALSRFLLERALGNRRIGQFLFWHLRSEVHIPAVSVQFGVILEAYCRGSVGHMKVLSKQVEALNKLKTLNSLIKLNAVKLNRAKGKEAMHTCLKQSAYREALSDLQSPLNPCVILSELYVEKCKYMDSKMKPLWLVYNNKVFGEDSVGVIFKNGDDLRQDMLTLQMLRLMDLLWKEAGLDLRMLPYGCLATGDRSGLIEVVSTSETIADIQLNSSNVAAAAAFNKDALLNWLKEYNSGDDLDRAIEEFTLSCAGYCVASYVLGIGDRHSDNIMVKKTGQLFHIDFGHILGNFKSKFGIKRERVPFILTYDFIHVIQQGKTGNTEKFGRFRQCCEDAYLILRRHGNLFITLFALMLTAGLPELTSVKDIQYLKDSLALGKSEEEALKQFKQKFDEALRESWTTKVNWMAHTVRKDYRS
Phosphatidylinositol 4,5-bisphosphate 3-kinase catalytic subunit alpha isoform, sequence (P42336 whole entry, canonical isoform): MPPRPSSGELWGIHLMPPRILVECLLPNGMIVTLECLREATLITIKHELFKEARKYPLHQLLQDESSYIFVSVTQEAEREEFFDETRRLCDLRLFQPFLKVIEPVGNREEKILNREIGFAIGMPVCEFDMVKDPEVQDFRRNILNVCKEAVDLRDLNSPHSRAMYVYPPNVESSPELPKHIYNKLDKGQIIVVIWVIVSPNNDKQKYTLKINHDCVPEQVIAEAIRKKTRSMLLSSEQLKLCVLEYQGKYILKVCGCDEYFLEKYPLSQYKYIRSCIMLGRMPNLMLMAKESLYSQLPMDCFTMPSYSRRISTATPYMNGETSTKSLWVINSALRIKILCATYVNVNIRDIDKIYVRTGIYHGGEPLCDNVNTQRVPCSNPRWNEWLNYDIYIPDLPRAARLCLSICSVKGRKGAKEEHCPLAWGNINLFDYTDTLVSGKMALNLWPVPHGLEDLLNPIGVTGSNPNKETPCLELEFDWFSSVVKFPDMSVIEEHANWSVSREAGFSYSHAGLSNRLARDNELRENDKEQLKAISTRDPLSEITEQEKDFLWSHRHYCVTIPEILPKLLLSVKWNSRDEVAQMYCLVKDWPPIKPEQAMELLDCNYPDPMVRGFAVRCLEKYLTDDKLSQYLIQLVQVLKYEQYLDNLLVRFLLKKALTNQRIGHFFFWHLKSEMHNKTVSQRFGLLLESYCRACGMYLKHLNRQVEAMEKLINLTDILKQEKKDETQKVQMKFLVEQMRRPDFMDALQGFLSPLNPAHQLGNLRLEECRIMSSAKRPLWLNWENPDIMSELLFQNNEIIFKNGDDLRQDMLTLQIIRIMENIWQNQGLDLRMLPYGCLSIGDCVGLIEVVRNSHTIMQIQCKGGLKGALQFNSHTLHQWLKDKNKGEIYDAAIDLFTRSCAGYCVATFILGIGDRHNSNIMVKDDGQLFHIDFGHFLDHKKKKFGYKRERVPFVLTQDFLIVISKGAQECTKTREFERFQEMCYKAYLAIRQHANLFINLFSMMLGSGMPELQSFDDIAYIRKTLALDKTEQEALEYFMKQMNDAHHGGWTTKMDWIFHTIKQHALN

Regarding `c1ccc(COc2cccc(-c3nc(-c4ccccn4)cc(N4CCOCC4)n3)c2)cc1`, in series [1], the pIC50 was less than 5.00.
Same read-out and setting: with `c1ccc(COc2cccc(-c3nc(-c4cccnc4)cc(N4CCOCC4)n3)c2)cc1` the figure was less than 5.00; with `c1ccc(COc2cccc(-c3nc(-c4ccncc4)cc(N4CCOCC4)n3)c2)cc1`, less than 5.00.
On to `Clc1ccc(-c2cc(N3CCOCC3)nc(-c3cccc(OCc4ccccc4)c3)n2)cc1`, for which the pIC50 in [1] was less than 5.00.
Turning to `Clc1ccc(-c2cc(N3CCOCC3)nc(-c3cccc(OCc4ccccc4)c3)n2)cc1Cl`, the pIC50 in [1] is less than 5.00.
`Oc1cccc(-c2nc(-c3ccccn3)cc(N3CCOCC3)n2)c1`: the results for the pIC50 in series [2], in series [1] and in [11] were 7.00, 7.21 and 7.36, respectively. The metabolised at 0.5 h in series [3] came to 57%. In [4], the metabolised at 0.25 h came out at 39%. For the same compound, the Activity worked out at 76% in the series with IGROV-1 [5]; 84% in the series with IGROV-1 [6]; 20% with IGROV-1 [7]; 5% in the series on IGROV-1 [8]; 3% with IGROV-1 [9]; 10% with IGROV-1 [10]. The compound also registered a GI50 in the series on IGROV-1 [12] of 0.37 µM.
For the compound `Oc1cccc(-c2nc(-c3cccnc3)cc(N3CCOCC3)n2)c1`, the pIC50 was 6.36 in [2], 6.59 in series [1] and 6.47 in [11]. Besides, growth in the series on IGROV-1 [12] was halved (GI50) at 0.63 µM.
As for `Oc1cccc(-c2nc(-c3ccncc3)cc(N3CCOCC3)n2)c1`, the results for the pIC50 in [2], in series [1] and in series [11] were 6.70, 6.85 and 6.82, respectively. This compound also gave a GI50 in the series with IGROV-1 [12] of 1.2 µM.
Turning to `Oc1cccc(-c2nc(-c3ccc(Cl)cc3)cc(N3CCOCC3)n2)c1`, the negative logarithm of the IC50 (pIC50) in [1] was 6.16.
With `Oc1cccc(-c2nc(-c3ccc(Cl)c(Cl)c3)cc(N3CCOCC3)n2)c1`, in [1], the pIC50 was 6.70.
For the compound `Oc1cccc(-c2cc(NCc3ccccn3)nc(N3CCOCC3)n2)c1`, the pIC50 in series [2] is 5.64; in series [1], 6.05; in series [11], 5.12.
Consider `Oc1cccc(-c2cc(NCc3ccncc3)nc(N3CCOCC3)n2)c1`, for which the pIC50 in [1] is 6.00.
`Oc1cccc(-c2cc(NCCc3ccccn3)nc(N3CCOCC3)n2)c1`: the pIC50 in [2] is 5.59; in [1], 6.60; in series [11], 6.08. Also, in the series on IGROV-1 [12], the 50% growth inhibitory concentration (GI50) turned out to be 2.2 µM.
Taken in the same sequence, the figures for `Oc1cccc(-c2cc(NCCc3cccnc3)nc(N3CCOCC3)n2)c1` were 5.72, 6.59, 6.02 and 1.2 µM.
For the compound `Oc1cccc(-c2cc(NCCc3ccncc3)nc(N3CCOCC3)n2)c1`, the pIC50 in series [2] was 5.80; in [1], 6.85; in series [11], 6.13. The metabolised at 0.5 h in series [3] turned out to be 71%. For the same compound, in series [4], the metabolised at 0.25 h worked out at 54%. Further, the Activity is 75% in the series with IGROV-1 [5]; 87% in the series on IGROV-1 [6]; 21% with IGROV-1 [7]; 2% in the series with IGROV-1 [8]; 4% in the series on IGROV-1 [9]; 10% in the series on IGROV-1 [10]. The compound also came in with a GI50 in the series on IGROV-1 [12] of 0.7 µM.
In series [1], `Oc1cccc(-c2cc(N3CCOCC3)nc(NCc3ccccn3)n2)c1` had a pIC50 of 6.00.
Same read-out and setting: with `Oc1cccc(-c2cc(N3CCOCC3)nc(NCc3cccnc3)n2)c1` the figure was 6.06.
The same measure, in the same setting: as for `Oc1cccc(-c2cc(N3CCOCC3)nc(NCc3ccncc3)n2)c1`, the figure is 6.07.
With `Oc1cccc(-c2cc(N3CCOCC3)nc(NCCc3ccccn3)n2)c1`, the pIC50 was 5.28 in series [2], 6.74 in series [1] and 6.42 in series [11]. In the series on IGROV-1 [12], it took 1.2 µM to inhibit growth by half (GI50).
`Oc1cccc(-c2cc(N3CCOCC3)nc(NCCc3cccnc3)n2)c1` had a pIC50 in series [1] of 6.60. The same compound came in with a GI50 in the series on IGROV-1 [12] of 0.75 µM.
For `Oc1cccc(-c2cc(N3CCOCC3)nc(NCCc3ccncc3)n2)c1` the same measures were 6.64 and 0.95 µM.
For the compound `Oc1cccc(-c2cc(OCc3ccccn3)nc(N3CCOCC3)n2)c1`, the figures for the pIC50 in series [2], in series [1] and in [11] were 6.43, 6.96 and 6.14, respectively. Moreover, the GI50 with IGROV-1 [12] was found to be 1.5 µM.
With `Oc1cccc(-c2cc(N3CCOCC3)nc(OCc3ccccn3)n2)c1`, in series [1], the pIC50 is 6.07. The compound also displayed a GI50 in the series on IGROV-1 [12] of 2.5 µM.
`c1ccc(CCNc2cc(-c3ccc4cc[nH]c4c3)nc(N3CCOCC3)n2)nc1` gave a pIC50 in [1] of less than 5.00. For the same compound, growth in the series on IGROV-1 [12] was halved (GI50) at 12 µM.
For `c1cncc(CCNc2cc(-c3ccc4cc[nH]c4c3)nc(N3CCOCC3)n2)c1` the same measures were less than 5.00 and 6 µM.
For `c1cc(CCNc2cc(-c3ccc4cc[nH]c4c3)nc(N3CCOCC3)n2)ccn1` the same measures were less than 5.00 and 14.5 µM.
Taken in the same sequence, the figures for `CS(=O)(=O)Nc1cccc(-c2cc(NCCc3ccccn3)nc(N3CCOCC3)n2)c1` were less than 5.00 and 15 µM.
In [1], `CS(=O)(=O)Nc1cccc(-c2cc(NCCc3cccnc3)nc(N3CCOCC3)n2)c1` gave a pIC50 of less than 5.00. The GI50 with IGROV-1 [12] worked out at 11.6 µM.
Taken in the same sequence, the figures for `CS(=O)(=O)Nc1cccc(-c2cc(NCCc3ccncc3)nc(N3CCOCC3)n2)c1` were less than 5.00 and 15 µM.
As to `c1ccc(CCNc2cc(-c3cccc4[nH]ncc34)nc(N3CCOCC3)n2)nc1`, the metabolised at 0.5 h in series [3] came to 84%. For the same compound, in series [4], the metabolised at 0.25 h amounted to 58%. Also, in series [1], the pIC50 is 5.89. In the series on IGROV-1 [12], this compound gave a GI50 of 7.8 µM.
Regarding `c1cncc(CCNc2cc(-c3cccc4[nH]ncc34)nc(N3CCOCC3)n2)c1`, the metabolised at 0.5 h in [3] worked out at 98%. Moreover, the metabolised at 0.25 h in [4] is 66%. The pIC50 in series [1] was 6.18. Further, halving of growth in the series on IGROV-1 [12] (GI50) required 2.9 µM.
Taken in the same sequence, the figures for `c1cc(-c2cc(NCCc3ccncc3)nc(N3CCOCC3)n2)c2cn[nH]c2c1` were 68%, 37%, 6.11 and 2.7 µM.
Turning to `c1ccc(COc2cc(-c3ccc4cc[nH]c4c3)nc(N3CCOCC3)n2)nc1`, the pIC50 in series [1] is less than 5.00. Moreover, growth with IGROV-1 [12] was halved (GI50) at 6 µM.
For `CS(=O)(=O)Nc1ccc(-c2cc(OCc3ccccn3)nc(N3CCOCC3)n2)cc1` the same measures were less than 5.00 and 16 µM.
As for `c1ccc(COc2cc(-c3cccc4[nH]ncc34)nc(N3CCOCC3)n2)nc1`, the metabolised at 0.5 h in series [3] is 66%. Moreover, in [4], the metabolised at 0.25 h came to 44%. The pIC50 in series [1] is 6.30. In the series on IGROV-1 [12], the GI50 was found to be 1.9 µM.
Take `c1cncc(CCNc2nc(-c3ccc4cc[nH]c4c3)cc(N3CCOCC3)n2)c1`: in series [1], the pIC50 is 5.14. This compound gave a GI50 in the series on IGROV-1 [12] of 4.2 µM.
As to `c1cc(CCNc2nc(-c3ccc4cc[nH]c4c3)cc(N3CCOCC3)n2)ccn1`, the metabolised at 0.5 h in [3] is 60%. Also, the metabolised at 0.25 h in series [4] came out at 38%. Moreover, in series [1], the pIC50 was less than 5.00. In addition, the GI50 in the series on IGROV-1 [12] stood at 3 µM.
Take `CS(=O)(=O)Nc1cccc(-c2cc(N3CCOCC3)nc(NCCc3ccccn3)n2)c1`: the pIC50 in [1] is less than 5.00. Besides, growth in the series with IGROV-1 [12] was halved (GI50) at 11.5 µM.
In [1], `CS(=O)(=O)Nc1cccc(-c2cc(N3CCOCC3)nc(NCCc3cccnc3)n2)c1` showed a pIC50 of less than 5.00. Moreover, in the series on IGROV-1 [12], the GI50 stood at 16.2 µM.
For the compound `CS(=O)(=O)Nc1cccc(-c2cc(N3CCOCC3)nc(NCCc3ccncc3)n2)c1`, in series [3], the metabolised at 0.5 h turned out to be 53%. Besides, in [4], the metabolised at 0.25 h was determined as 33%. In series [1], this compound showed a pIC50 of 5.04. For the same compound, in the series with IGROV-1 [12], growth was halved (GI50) at 6.2 µM.
In turn, `c1ccc(CCNc2nc(-c3cccc4[nH]ncc34)cc(N3CCOCC3)n2)nc1` gave a pIC50 in [1] of 5.96. In addition, growth in the series on IGROV-1 [12] was halved (GI50) at 2.7 µM.
For `c1cncc(CCNc2nc(-c3cccc4[nH]ncc34)cc(N3CCOCC3)n2)c1` the same measures were 6.09 and 2.9 µM.
On to `c1cc(-c2cc(N3CCOCC3)nc(NCCc3ccncc3)n2)c2cn[nH]c2c1`, for which, in series [3], the metabolised at 0.5 h amounted to 74%. Further, in series [4], the metabolised at 0.25 h turned out to be 49%. In series [1], the negative-log IC50 (pIC50) is 6.36. This compound yielded a GI50 in the series with IGROV-1 [12] of 1.5 µM.
Consider `c1ccc(COc2nc(-c3ccc4cc[nH]c4c3)cc(N3CCOCC3)n2)nc1`, for which the pIC50 in series [1] was 5.28. This compound also had a GI50 in the series with IGROV-1 [12] of 9 µM.
Taken in the same sequence, the figures for `CS(=O)(=O)Nc1ccc(-c2cc(N3CCOCC3)nc(OCc3ccccn3)n2)cc1` were 5.21 and 13.5 µM.
For `c1ccc(COc2nc(-c3cccc4[nH]ncc34)cc(N3CCOCC3)n2)nc1` the same measures were 5.87 and 2.3 µM.
Consider `O=c1cc(N2CCOCC2)oc2c(-c3ccccc3)cccc12` [LY-294002], for which the Activity in the series on IGROV-1 [5] came to 72%; in the series on IGROV-1 [6], 82%; with IGROV-1 [7], 21%; in the series with IGROV-1 [8], 3%; with IGROV-1 [9], 7%; with IGROV-1 [10], 15%.

As usually defined, the pIC50 is the negative decadic logarithm of the IC50, by convention in mol/L. As usually defined, the GI50 is the concentration that inhibits growth by half. A lower GI50 goes with more potent growth inhibition.
